The values that follow come from US9833497B2, “Human originated EGF domain proteins and use of the same” (CHENGDU SOURCEBIO LIMITED-LIABILITY COMPANY, priority 2013, dated 2017).

As a reminder, the MIC is the least concentration at which growth counts as inhibited. High values mean a need for much substance, low ones inhibition by little substance.

Holding throughout (type): cell-based
One experiment relates to Proteus mirabilis. Briefly: MIC against Gram-negative bacteria: Proteus mirabilis. The method, boiled down:
(§1)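 Growth inhibition by human EGF domain proteins was scored in LB liquid culture seeded at 5×10^5 CFU/mL. Protein was applied as a two-fold dilution series in triplicate, with shaking incubation at 37° C; MIC is the lowest concentration giving no growth.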

For another experiment, the system named is Serratia marcescens. In words: MIC against Gram-negative bacteria: Serratia marcescens. The method, boiled down: as §1
The next experiment has as its system E. coli DH5α. Briefly: Antibacterial activity: MIC and growth curve against E. coli DH5α in 96-well plate. The following applies: minimal inhibitory concentration against E. coli DH5α; 96-well plate, 5×10^5 CFU/mL, 37° C., judged after 8 h. The method, boiled down:
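Log-phase bacteria (OD600 ~0.5) resuspended in LB at 5×10^5 CFU/mL, exposed to recombinant protein at 50, 25, 12.5 μg/mL final in triplicate, 37 °C shaking at 175 rpm. OD600 read every 30 min; MIC is lowest concentration showing no growth.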

For a further experiment, the system named is Pseudomonas aeruginosa. Briefly: MIC against Gram-negative bacteria: Pseudomonas aeruginosa. In outline: as §1
For another experiment, the system named is Enterobacter cloacae. Briefly: MIC against Gram-negative bacteria: Enterobacter cloacae. In outline:
as §1

A further experiment concerns Proteus vulgaris. Briefly: MIC against Gram-negative bacteria: Proteus vulgaris. In outline: as §1
For another experiment, the system named is Moraxella catarrhalis. In words: MIC against Gram-negative bacteria: Moraxella catarrhalis. The method, boiled down: as §1
A further experiment concerns E. coli BL21. Briefly: MIC against Gram-negative bacteria: E. coli BL21. In outline: as §1
Another experiment concerns Aeromonas hydrophila. Briefly: MIC against Gram-negative bacteria: Aeromonas hydrophila. The method, boiled down: as §1
The test system of a further experiment is Citrobacter diversus. Briefly: MIC against Gram-negative bacteria: Citrobacter diversus. The method, boiled down:
as §1

In a further experiment the test system is Klebsiella pneumonia. Briefly: MIC against Gram-negative bacteria: Klebsiella pneumonia. In outline:
as §1

[1] abbreviates: P. mirabilis, 10 h cultivation at 37° C., 5×10^5 CFU/mL.
The mark [2] stands for this setting: S. marcescens, 10 h cultivation at 37° C., 5×10^5 CFU/mL.
[3] abbreviates: P. aeruginosa, 10 h cultivation at 37° C., 5×10^5 CFU/mL.
The mark [4] stands for this setting: E. cloacae, 10 h cultivation at 37° C., 5×10^5 CFU/mL.
[5] abbreviates: P. vulgaris, 10 h cultivation at 37° C., 5×10^5 CFU/mL.
Where [6] appears, read: M. catarrhalis, 10 h cultivation at 37° C., 5×10^5 CFU/mL.
Where [7] appears, read: E. coli BL21, 10 h cultivation at 37° C., 5×10^5 CFU/mL.
[8] abbreviates: A. hydrophila, 10 h cultivation at 37° C., 5×10^5 CFU/mL.
The mark [9] stands for this setting: C. diversus, 10 h cultivation at 37° C., 5×10^5 CFU/mL.
The mark [10] stands for this setting: K. pneumonia, 10 h cultivation at 37° C., 5×10^5 CFU/mL.
Where [11] appears, read: 96-well plate, 5×10^5 CFU/mL, 37° C., 10 h.

On to “PRT188 (HVSDCARNPCAHGGTCHDLENGLMCTCPAGFSGRRCE; listed as Homo sapiens)”, for which the “MIC (μg/mL) P. mirabilis” value with Proteus mirabilis (setting [1]) is 12.5 µg/mL. Besides, the “MIC (μg/mL) S. marcescens” value with Serratia marcescens (setting [2]) turned out to be 12.5 µg/mL. The same substance gave an MIC against E. coli DH5α of 12.5 µg/mL. In the experiment with Pseudomonas aeruginosa (setting [3]), the “MIC (μg/mL) P. aeruginosa” value came to 50 µg/mL. Besides, in the experiment with Enterobacter cloacae (setting [4]), the “MIC (μg/mL) E. cloacae” value turned out to be 50 µg/mL. Besides, in the experiment with Proteus vulgaris (setting [5]), the “MIC (μg/mL) P. vulgaris” value was determined as 25 µg/mL. The “MIC (μg/mL) M. catarrhalis” value against Moraxella catarrhalis (setting [6]) came to 25 µg/mL. For the same substance, in the experiment on E. coli BL21 (setting [7]), the “MIC (μg/mL) E. coli BL21” value stood at 12.5 µg/mL. Moreover, the “MIC (μg/mL) A. hydrophila” value in the experiment on Aeromonas hydrophila (setting [8]) came out at 12.5 µg/mL. For the same substance, the “MIC (μg/mL) C. diversus” value in the experiment with Citrobacter diversus (setting [9]) is 12.5 µg/mL. Moreover, in the experiment with Klebsiella pneumonia (setting [10]), the “MIC (μg/mL) K. pneumonia” value was found to be 12.5 µg/mL.

“PRT5 (DGDQCETSPCQNQGKCKDGLGEYTCTCLEGFEGKNCE; listed as Homo sapiens)”: the “MIC (μg/mL) P. mirabilis” value in the experiment on Proteus mirabilis (Proteus mirabilis, 96-well plate, 5×10^5 CFU/mL, 37° C., 10 h) is 12.5 µg/mL. Besides, the “MIC (μg/mL) S. marcescens” value in the experiment on Serratia marcescens (Serratia marcescens, 96-well plate, 5×10^5 CFU/mL, 37° C., 10 h) came out at 25 µg/mL. In the experiment on E. coli DH5α, the MIC was 12.5 µg/mL. Moreover, the “MIC (μg/mL) P. aeruginosa” value in the experiment on Pseudomonas aeruginosa (Pseudomonas aeruginosa, 96-well plate, 5×10^5 CFU/mL, 37° C., 10 h) worked out at 25 µg/mL. The “MIC (μg/mL) E. cloacae” value against Enterobacter cloacae (Enterobacter cloacae, 96-well plate, 5×10^5 CFU/mL, 37° C., 10 h) was 25 µg/mL. The “MIC (μg/mL) P. vulgaris” value against Proteus vulgaris (Proteus vulgaris, 96-well plate, 5×10^5 CFU/mL, 37° C., 10 h) was found to be 12.5 µg/mL. Besides, the “MIC (μg/mL) M. catarrhalis” value against Moraxella catarrhalis (Moraxella catarrhalis, 96-well plate, 5×10^5 CFU/mL, 37° C., 10 h) was 25 µg/mL. In addition, the “MIC (μg/mL) E. coli BL21” value with E. coli BL21 (E. coli BL21, 96-well plate, 5×10^5 CFU/mL, 37° C., 10 h) is 12.5 µg/mL. In addition, the “MIC (μg/mL) A. hydrophila” value against Aeromonas hydrophila (Aeromonas hydrophila, 96-well plate, 5×10^5 CFU/mL, 37° C., 10 h) is 12.5 µg/mL. For the same substance, the “MIC (μg/mL) C. diversus” value against Citrobacter diversus (Citrobacter diversus, 96-well plate, 5×10^5 CFU/mL, 37° C., 10 h) is 25 µg/mL. Moreover, in the experiment with Klebsiella pneumonia (Klebsiella pneumonia, 96-well plate, 5×10^5 CFU/mL, 37° C., 10 h), the “MIC (μg/mL) K. pneumonia” value is 25 µg/mL.

Regarding “PRT794 (SSRCGCKNDAVCSPVDGSCTCKAGWHGVDCS; listed as Homo sapiens)”, the “MIC (μg/mL) P. mirabilis” value in the experiment on Proteus mirabilis (setting [1]) is 25 µg/mL. In addition, the “MIC (μg/mL) S. marcescens” value in the experiment on Serratia marcescens (setting [2]) is 12.5 µg/mL. The same substance yielded an MIC against E. coli DH5α of 50 µg/mL. For the same substance, the “MIC (μg/mL) P. aeruginosa” value against Pseudomonas aeruginosa (setting [3]) turned out to be 50 µg/mL. Moreover, the “MIC (μg/mL) E. cloacae” value in the experiment with Enterobacter cloacae (setting [4]) is 25 µg/mL. The “MIC (μg/mL) P. vulgaris” value with Proteus vulgaris (setting [5]) stood at 50 µg/mL. The “MIC (μg/mL) M. catarrhalis” value in the experiment on Moraxella catarrhalis (setting [6]) turned out to be 12.5 µg/mL. The “MIC (μg/mL) E. coli BL21” value with E. coli BL21 (setting [7]) was found to be 12.5 µg/mL. Besides, in the experiment with Aeromonas hydrophila (setting [8]), the “MIC (μg/mL) A. hydrophila” value was 50 µg/mL. Further, the “MIC (μg/mL) C. diversus” value with Citrobacter diversus (setting [9]) is 25 µg/mL. Besides, the “MIC (μg/mL) K. pneumonia” value with Klebsiella pneumonia (setting [10]) stood at 12.5 µg/mL.

Turning to “PRT926 (EINECQSNPCVNNGQCVDKVNRFQCLCPPGFTGPVCQ; listed as Homo sapiens)”, the MIC against Proteus mirabilis (P. mirabilis, 10 h cultivation at 37° C.) amounted to 50 µg/mL; against Serratia marcescens (S. marcescens, 10 h cultivation at 37° C.), 12.5 µg/mL; against E. coli DH5α it was 25 µg/mL; against Pseudomonas aeruginosa (P. aeruginosa, 10 h cultivation at 37° C.) it was 25 µg/mL; against Enterobacter cloacae (E. cloacae, 10 h cultivation at 37° C.), 25 µg/mL; in the experiment on Proteus vulgaris (P. vulgaris, 10 h cultivation at 37° C.), 25 µg/mL. The minimal inhibitory concentration (MIC) in the experiment with Moraxella catarrhalis (M. catarrhalis, 10 h cultivation at 37° C.) was found to be 25 µg/mL; in the experiment with E. coli BL21 (E. coli BL21, 10 h cultivation at 37° C.), 50 µg/mL; in the experiment with Aeromonas hydrophila (A. hydrophila, 10 h cultivation at 37° C.), 50 µg/mL; with Citrobacter diversus (C. diversus, 10 h cultivation at 37° C.) it was 12.5 µg/mL; against Klebsiella pneumonia (K. pneumonia, 10 h cultivation at 37° C.), 12.5 µg/mL.

As for “PRT548 (CPCPLSVPSNNFAEGCVLRGGRTQCLCKPGYAGASCERCAPGFFGNPLVLGSSCQP; listed as Homo sapiens)”, the “MIC against P. mirabilis” value against Proteus mirabilis (setting [11]) was 12.5 µg/mL. The “MIC against S. marcescens” value in the experiment on Serratia marcescens (setting [11]) amounted to 50 µg/mL. The same substance returned an MIC against E. coli DH5α of 12.5 µg/mL. Further, the “MIC against P. aeruginosa” value in the experiment with Pseudomonas aeruginosa (setting [11]) was 50 µg/mL. In the experiment with Enterobacter cloacae (setting [11]), the “MIC against E. cloacae” value stood at 12.5 µg/mL. In the experiment on Proteus vulgaris (setting [11]), the “MIC against P. vulgaris” value is 25 µg/mL. Besides, in the experiment on Moraxella catarrhalis (setting [11]), the “MIC against M. catarrhalis” value amounted to 25 µg/mL. Also, the “MIC against E. coli BL21” value against E. coli BL21 (setting [11]) stood at 25 µg/mL. For the same substance, the “MIC against A. hydrophila” value with Aeromonas hydrophila (setting [11]) worked out at 25 µg/mL. Further, the “MIC against C. diversus” value against Citrobacter diversus (setting [11]) stood at 50 µg/mL. The “MIC against K. pneumonia” value with Klebsiella pneumonia (setting [11]) came to 25 µg/mL.

As to “PRT152 (LPCPGGTERPCGGYGQCEGEGTRGGSGHCDCQAGYGGEACG; listed as Homo sapiens)”, the “MIC (μg/mL) P. mirabilis” value against Proteus mirabilis (setting [1]) was determined as 25 µg/mL. For the same substance, the “MIC (μg/mL) S. marcescens” value against Serratia marcescens (setting [2]) stood at 12.5 µg/mL. The same substance registered an MIC in the experiment on E. coli DH5α of 12.5 µg/mL. The “MIC (μg/mL) P. aeruginosa” value in the experiment with Pseudomonas aeruginosa (setting [3]) came to 12.5 µg/mL. Moreover, the “MIC (μg/mL) E. cloacae” value against Enterobacter cloacae (setting [4]) is 12.5 µg/mL. Also, the “MIC (μg/mL) P. vulgaris” value with Proteus vulgaris (setting [5]) came to 12.5 µg/mL. For the same substance, the “MIC (μg/mL) M. catarrhalis” value against Moraxella catarrhalis (setting [6]) worked out at 12.5 µg/mL. Also, the “MIC (μg/mL) E. coli BL21” value against E. coli BL21 (setting [7]) was found to be 12.5 µg/mL. Also, the “MIC (μg/mL) A. hydrophila” value in the experiment on Aeromonas hydrophila (setting [8]) amounted to 12.5 µg/mL. Besides, the “MIC (μg/mL) C. diversus” value against Citrobacter diversus (setting [9]) is 25 µg/mL. Also, the “MIC (μg/mL) K. pneumonia” value against Klebsiella pneumonia (setting [10]) was 12.5 µg/mL.
